Experimental data published in patent US20250388575A1, “HETEROBIFUNCTIONAL COMPOUNDS AND METHODS OF TREATING DISEASE” (Halda Therapeutics OpCo, Inc., priority 2022, published 2025).
Read-outs that look alike come from different tables or passages of the source.

What was measured:
[1] = tested on: T-Rex 293 cell line SC3 cells having increased expression of androgen receptor protein; test: Cellular growth inhibition, T-Rex 293 SC3 cells with increased androgen receptor expression (doxycycline), CellTiter-Glo; format: cell-based; details: T-Rex 293 SC3 cells with increased androgen receptor expression (exposed to 10 ng/mL doxycycline), 72 hours, CellTiter-Glo; read-out: GI50
Method: (§1) The following types of cells were prepared for this experiment: (i) a T-Rex 293 cell line having increased expression of androgen receptor protein due to exposure to doxycycline and (ii) a T-Rex 293 cell line lacking increased expression of androgen receptor protein. Ability of the test compounds to inhibit proliferation of the foregoing cell types was evaluated according to the procedures set forth below.
(§2) The doxycycline-inducible androgen receptor protein expressing cell line was established using the following protocol: T-Rex 293 cells were purchased from Invitrogen (Cat #R71007) and transfected using Lipofectamine 2000 with the wild-type androgen receptor protein sequence cloned into the pcDNA4/TO vector. Transfected cells were selected using 400 μg/mL Zeocin (Invitrogen Cat #R25001). Following selection, single clones were raised and maintained in Dulbecco's Modified Eagle Medium (DMEM) supplemented with 10% w/w Tetracycline-free fetal bovine serum (FBS) and 250 μg/mL Zeocin. Clones were analyzed for expression of androgen receptor protein in the presence and absence of 10 ng/ml doxycycline (Sigma Cat #D9891), and a single doxycycline-inducible clone (hereinafter “SC3”) was selected for use in downstream assays.
(§3) The SC3 cells were seeded on poly-D-lysine coated, black clear-bottom 384-well plates at 2500/well, in 25 μL Phenol Red Free Dulbecco's Modified Eagle Medium (DMEM) supplemented with 10% w/w charcoal-dextran treated fetal bovine serum (FBS) and 1% w/w pen-strep, with or without 10 ng/mL doxycycline. Pen-Strep is a commercially available mixture of penicillin G and streptomycin, which is used in mammalian cell culture media to prevent bacterial contamination. Phenol Red Free Dulbecco's Modified Eagle Medium (DMEM) supplemented with 10% w/w charcoal-dextran treated fetal bovine serum (FBS) and 1% w/w pen-strep, with or without 10 ng/mL doxycycline is herein referred to as Treatment Medium. Following seeding of cells in the plates, the plates were spun at 300×g for 30 seconds, then equilibrated to room temperature for 30 minutes, and then deposited in a humidified tissue culture incubator maintained at 37° C. with 5% CO2.
(§4) At 24 hours after seeding of the cells, dilutions of test compound were prepared in DMSO and dissolved in Treatment Medium, to achieve a final DMSO concentration of 0.5% w/w, thereby providing the Test Compound Solution. A 25 μL aliquot of the Test Compound Solution was added to cells in the well plates. An equal volume of a solution containing DMSO and Treatment Medium was used as a negative control. Following treatment of cells with Test Compound Solution or said equal volume of a solution containing DMSO and Treatment Medium, the plates were spun at 300×g for 30 seconds, and then left in an incubator for 72 hours.
(§5) At the end of the treatment duration, cell viability was quantified with CellTiter-Glo 2.0 reagent (Promega Cat #G9243). For this purpose, plates were equilibrated to room temperature for 30 minutes, and then 25 μL of CellTiter-Glo 2.0 reagent was added to cells in the plate wells. Plates were then agitated on a shaker for two minutes at 500 rpm and subsequently incubated at room temperature for 10 minutes. Following incubation, the plates were spun at 3000×g for 30 seconds, then sealed with an optical adhesive cover, and luminescence readings were measured with an EnVision Plate Reader.
(§6) Data was normalized using zero luminescence for baseline. A four-parameter non-linear regression curve fit was applied to dose-response data in GraphPad Prism data analysis software to determine the half-maximal growth inhibitory concentration (GI50) for each test compound.

[2] = tested on: T-Rex 293 cell line SC3 cells lacking increased expression of androgen receptor protein; test: Cellular growth inhibition, T-Rex 293 SC3 cells lacking increased androgen receptor expression (no doxycycline), CellTiter-Glo; format: cell-based; details: T-Rex 293 SC3 cells lacking increased androgen receptor expression (not exposed to doxycycline), 72 hours, CellTiter-Glo; read-out: GI50
Method: as §1, §2, §3, §4, §5, §6

[3] = tested on: VCaP cells; test: Cellular growth inhibition assay for VCaP cells, CellTiter-Glo; format: cell-based, human; details: VCaP cells, 72 hours, CellTiter-Glo, read-out: GI50
Method: VCaP cells were purchased from American Type Cell Culture (ATCC Cat #CRL2876) and then seeded on poly-D-lysine coated, black clear-bottom 384-well plates at 5000/well in 25 μL Dulbecco's Modified Eagle Medium (DMEM) supplemented with 10% w/w Fetal bovine serum (FBS) and 1% w/w Pen-Strep. Pen-Strep is a commercially available mixture of penicillin G and streptomycin, which is used in mammalian cell culture media to prevent bacterial contamination. Dulbecco's Modified Eagle Medium (DMEM) supplemented with 10% w/w fetal bovine serum (FBS) and 1% w/w Pen-Strep is herein referred to as Treatment Medium. Following seeding of cells in the plates, the plates were spun at 300×g for 30 seconds, then equilibrated to room temperature for 30 minutes, and then deposited in a humidified tissue culture incubator maintained at 37° C. with 5% CO2.
as §4, §5, §6

GI50 [3] [µM] | GI50 ([3]; Homo sapiens) [µM] | SMILES | GI50 [1] [µM] | GI50 [2] [µM]
> 3 |  | CCS(=O)(=O)c1ccc(Oc2ccc(CCC3CCN(c4ccc(C(=O)N[C@H]5CC[C@H](Oc6ccc(C#N)c(Cl)c6)CC5)nn4)CC3)cn2)c(-c2cn(C)c(=O)c3[nH]ccc23)c1 [I-220] | < 0.5 | > 3
 | < 0.5 | CCS(=O)(=O)Nc1ccc(Oc2ccc(CCC3CCN(c4ccc(C(=O)NC5CCC(Oc6ccc(C#N)c(Cl)c6)CC5)nn4)CC3)c(F)c2)c(-c2cn(C)c(=O)c3ccccc23)c1 (stereo not drawn) [I-242, N-[4-(3-chloro-4-cyano-phenoxy)cyclohexyl]-6-[4-[2-[4-[4-(ethylsulfonylamino)-2-(2-methyl-1-oxo-4-isoquinolyl)phenoxy]-2-fluoro-phenyl]ethyl]-1-piperidyl]pyridazine-3-carboxamide] | < 0.5 | > 3
< 0.5 |  | CCS(=O)(=O)c1ccc(Oc2cccc(CCCC3CCN(c4ncc(C(=O)N[C@H]5CC[C@H](Oc6ccc(C#N)c(Cl)c6)CC5)cn4)CC3)c2F)c(-c2cn(C)c(=O)c3[nH]ccc23)c1 [I-65] | < 0.5 | > 3
< 0.5 |  | Cn1cc(-c2cc(C(C)(C)O)ccc2Oc2cccc(N3CC(N(C4CC4)C4CCN(c5ccc(C(=O)N[C@H]6CC[C@H](Oc7ccc(C#N)c(Cl)c7)CC6)nn5)CC4)C3)c2F)c2cc[nH]c2c1=O [I-145] | < 0.5 | > 3
 | < 0.5 | CCS(=O)(=O)Cc1ccc(Oc2cccc(OCCOC3CCN(c4ccc(C(=O)N[C@H]5CC[C@H](Oc6ccc(C#N)c(Cl)c6)CC5)nn4)CC3)c2F)c(-c2cn(C)c(=O)c3[nH]ccc23)c1 [I-22] | < 0.5 | < 0.5
< 0.5 |  | Cn1cc(-c2cc(S(=O)(=O)CCCN3CCN(c4ccc(C(=O)N[C@H]5CC[C@H](Oc6ccc(C#N)c(Cl)c6)CC5)nn4)CC3)ccc2Oc2ccc(F)cc2F)c2cc[nH]c2c1=O [I-93] | < 0.5 | > 3
 | < 0.5 | CCS(=O)(=O)Nc1ccc(Oc2cccc(CCOC3CCN(c4ccc(C(=O)N[C@H]5CC[C@H](Oc6ccc(C#N)c(Cl)c6)CC5)nn4)CC3)c2F)c(-c2cn(C)c(=O)c3[nH]ccc23)c1 [I-11] | < 0.5 | < 0.5
 | < 0.5 | CCS(=O)(=O)c1ccc(Oc2cccc(OCCOC3CCN(c4ccc(C(=O)N[C@H]5CC[C@H](Oc6ccc(C#N)c(Cl)c6)CC5)nn4)CC3)c2F)c(-c2cn(C)c(=O)c3[nH]ccc23)c1 [I-23] | < 0.5 | < 0.5
 |  | CCS(=O)(=O)Nc1ccc(Oc2cccc(OCCOCCOCCOCCOCCOCCOCCOC3CCN(c4ccc(C(=O)N[C@H]5CC[C@H](Oc6ccc(C#N)c(Cl)c6)CC5)nn4)CC3)c2)c(-c2cn(C)c(=O)c3[nH]ccc23)c1 [I-4, N-[4-(3-chloro-4-cyano-phenoxy)cyclohexyl]-6-[4-[2-[2-[2-[2-[2-[2-[2-[3-[4-(ethylsulfonylamino)-2-(6-methyl-7-oxo-1H-pyrrolo[2,3-c]pyridin-4-yl)phenoxy]phenoxy]ethoxy]ethoxy]ethoxy]ethoxy]ethoxy]ethoxy]ethoxy]-1-piperidyl]pyridazine-3-carboxamide] | < 0.5 | 1.5 to 3
< 0.5 |  | Cn1cc(-c2cc(C(C)(C)O)ccc2Oc2ccc(CCCCC3CCN(c4ccc(C(=O)N[C@H]5CC[C@H](Oc6ccc(C#N)c(Cl)c6)CC5)nn4)CC3)cc2)c2cc[nH]c2c1=O [I-125] |  | 

SMILES | GI50 [3] [µM] | GI50 ([3]; Homo sapiens) [µM] | GI50 [1] [µM] | GI50 [2] [µM]
Cn1cc(-c2cc(C(C)(C)O)ccc2OC2CC(OCC3CCN(c4ccc(C(=O)NC5CCC(Oc6ccc(C#N)c(Cl)c6)CC5)nn4)CC3)C2)c2ccccc2c1=O (stereo not drawn) [I-247, N-[4-(3-chloro-4-cyano-phenoxy)cyclohexyl]-6-[4-[[3-[4-(1-hydroxy-1-methyl-ethyl)-2-(2-methyl-1-oxo-4-isoquinolyl)phenoxy]cyclobutoxy]methyl]-1-piperidyl]pyridazine-3-carboxamide] |  | < 0.5 | < 0.5 | > 3
